Assay results: patent US20190093163A1, “COMPOSITIONS AND METHODS FOR MAINTAINING SPLICING FIDELITY” (President and Fellows of Harvard College, priority 2015, published 2019)

Tested on: SF1
Experiment: Immunoblots of SF1 in WT MEFs treated with TORC1 inhibitors
Format: cell-based
Settings: mouse embryonic fibroblasts; rapamycin 20 nM, Torin 250 nM
Experimental: To control for the SF1 antibody specificity, WT MEF transfected with non-targeting control siRNAs (siCt) or SF1 siRNA for 72 h and grown in 10% FBS, are shown on the right side of the blot. Biological duplicates are shown except for the siRNA treated lanes.
Immunoblotting was performed as in FIG. 14, Panel G. Biological duplicates are shown except for the siRNA treated lanes.
The inverted splicing reporter WBM535 was made by injecting modified minigene reporter plasmids into N2 worms. The plasmids were made by deleting the (+2) frameshift in the EGFP minigene and inserting a (+2) frameshift into the mCherry minigene. Worms were grown and maintained on standard nematode growth media (NGM) seeded with E. coli (OP50-1). E. coli bacteria were cultured overnight in LB at 37° C., after which 100 μl of liquid culture was seeded on plates to grow for 2 days at room temperature. Lifespans—All lifespans were conducted at 20° C. unless otherwise noted in figure legend. Lifespans were performed as described in Burkewitz et al. (93). Graphpad Prism 6 was used to plot survival curves and determine median lifespan. Survival curves were compared and p values calculated using the log-rank (Mantel-Cox) analysis method. […] RNA interference—All RNAi constructs came from the Ahringer RNAi library, except hrp-2 and hrpf-1 RNAi constructs, which originated from the Vidal RNAi library. RNAi experiments were carried out using E. coli HT115 bacteria on standard NGM plates containing 100 μg/ml Carbenicillin. […] NGM plus Carbenicillin plates were seeded 48 hours before use. Respective dsRNA expressing HT115 bacteria were induced by adding 100 μl IPTG (100 mM) one hour before introducing worms to the plate. RNAi was induced for all experiments from egg hatch. Solid plate-based dietary restriction assays—Solid sDR assays were performed as described by Ching et al. (79). Plates were prepared in advance and stored at 4° C.

Row | Compound | total SF1 levels | SF1 gel shifts indicative of altered phosphorylation
1 | CO[C@H]1C[C@@H]2CC[C@@H](C)[C@@](O)(O2)C(=O)C(=O)N2CCCC[C@H]2C(=O)O[C@H]([C@H](C)C[C@@H]2CC[C@@H](O)[C@H](OC)C2)CC(=O)[C@H](C)/C=C(\C)[C@@H](O)[C@@H](OC)C(=O)[C@H](C)C[C@H](C)/C=C/C=C/C=C/1C [rapamycin] | no effect | 
2 | CCC(=O)N1CCN(c2ccc(-n3c(=O)ccc4cnc5ccc(-c6cnc7ccccc7c6)cc5c43)cc2C(F)(F)F)CC1 [torin, Torin1] | no effect | nor did were SF1 gel shifts indicative of altered phosphorylation seen
